Experimental data taken from US10406136B2 (priority 2013, dated 2019).

Legend:
[1] = molecular target: T1, neuraminidase (EC. 3.2.1.8, C. perfringens, SIGMA, N2876) (Clostridium perfringens, UniProt A0A0H2YQR1); type: biochemical; settings: Lineweaver-Burk and Dixon plots
[2] = molecular target: T1, neuraminidase (EC. 3.2.1.8, C. perfringens, SIGMA, N2876); type: biochemical

T1 sequence (A0A0H2YQR1 1-694): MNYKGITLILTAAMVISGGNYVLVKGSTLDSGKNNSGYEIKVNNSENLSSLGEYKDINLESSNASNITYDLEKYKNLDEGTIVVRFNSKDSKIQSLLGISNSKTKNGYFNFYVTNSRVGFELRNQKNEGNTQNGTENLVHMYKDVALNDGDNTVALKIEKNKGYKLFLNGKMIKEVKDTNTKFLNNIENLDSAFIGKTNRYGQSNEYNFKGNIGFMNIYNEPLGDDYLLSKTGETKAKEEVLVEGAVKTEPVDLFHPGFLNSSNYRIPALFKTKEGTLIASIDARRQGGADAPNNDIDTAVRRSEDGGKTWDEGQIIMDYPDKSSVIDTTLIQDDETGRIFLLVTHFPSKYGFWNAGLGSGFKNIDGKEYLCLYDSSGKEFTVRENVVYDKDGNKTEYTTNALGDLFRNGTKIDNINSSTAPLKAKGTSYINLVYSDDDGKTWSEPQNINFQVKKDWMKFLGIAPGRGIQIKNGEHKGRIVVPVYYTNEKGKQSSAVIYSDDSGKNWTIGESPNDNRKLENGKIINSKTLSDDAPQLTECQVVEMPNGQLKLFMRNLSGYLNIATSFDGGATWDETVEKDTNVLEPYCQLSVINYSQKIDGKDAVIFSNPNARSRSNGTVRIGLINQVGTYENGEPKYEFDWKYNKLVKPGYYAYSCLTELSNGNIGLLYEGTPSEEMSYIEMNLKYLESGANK

| Compound | Inhibition (type) [1] | IC50 [2] |
| --- | --- | --- |
| COc1cc(C2CC(=O)c3c(cc(O)c(C/C=C(\C)CCC=C(C)C)c3O)O2)ccc1O (stereo not shown) [Compound 4, 3′-O-methyldiplacone] | Competitive |  |
| COc1cc(C2Oc3cc(O)c(C/C=C(\C)CCC=C(C)C)c(O)c3C(=O)[C@@H]2O)ccc1O (stereo partly shown) [Compound 1, 3′-O-methyldiplacol] | Competitive |  |
| CC(C)=CCC/C(C)=C/Cc1c(O)cc2c(c1O)C(=O)CC(c1ccc(O)c(O)c1)O2 (stereo not shown) [Compound 8, diplacone] | Competitive | 0.11 ± 0.003 µM |
| COc1c(O)cc(C2CC(=O)c3c(cc(O)c(C/C=C(\C)CCC=C(C)C)c3O)O2)cc1O (stereo not shown) [Compound 6, 6-geranyl-3′,5,5′,7-tetrahydroxy-4′-methoxyflavanone] | Competitive |  |
| COc1ccc(C2Oc3cc(O)c(C/C=C(\C)CCC=C(C)C)c(O)c3C(=O)[C@@H]2O)cc1O (stereo partly shown) [Compound 2, 4′-O-methyldiplacol] | Competitive |  |
| COc1cc(C2CC(=O)c3c(cc(O)c(C/C=C(\C)CCC=C(C)C)c3O)O2)cc(OC)c1O (stereo not shown) [Compound 9, 6-geranyl-4′,5,7-trihydroxy-3′,5′-dimethoxyflavanone] | Competitive |  |
| COc1ccc(C2CC(=O)c3c(cc(O)c(C/C=C(\C)CCC=C(C)C)c3O)O2)cc1O (stereo not shown) [Compound 5, 4′-O-methyldiplacone] | Competitive | 12.9 ± 0.4 µM |
| CC(C)=CCC/C(C)=C/Cc1c(O)cc2c(c1O)C(=O)CC(c1ccc(O)cc1)O2 (stereo not shown) [Compound 7, mimulone] | Competitive |  |
